From patent publication US9458120B2, “Phenoxypropanol derivative and pharmaceutical composition including the same” (KOREA INSTITUTE OF SCIENCE AND TECHNOLOGY, priority 2011, dated 2016) come the findings set out here.

In one test the target is T1, TREK-1 channel (Rattus norvegicus, UniProt Q920B6).
T1 construct: expressed in transfected cells; host or cells: COS7 (Korean Cell Line Bank), transient transfection with Effectene
T1 sequence (Q920B6 1-426): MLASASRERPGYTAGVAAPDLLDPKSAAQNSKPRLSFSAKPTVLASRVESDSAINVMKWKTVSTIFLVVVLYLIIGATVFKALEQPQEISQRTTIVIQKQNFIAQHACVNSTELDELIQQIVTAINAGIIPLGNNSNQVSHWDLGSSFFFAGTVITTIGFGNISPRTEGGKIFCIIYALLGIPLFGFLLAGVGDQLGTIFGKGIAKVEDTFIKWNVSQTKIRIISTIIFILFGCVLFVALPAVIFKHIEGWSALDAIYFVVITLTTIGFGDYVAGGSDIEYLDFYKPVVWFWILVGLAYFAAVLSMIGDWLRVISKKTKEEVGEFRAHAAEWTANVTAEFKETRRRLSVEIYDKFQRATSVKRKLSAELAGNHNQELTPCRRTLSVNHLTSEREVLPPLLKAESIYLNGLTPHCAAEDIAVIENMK
As to the kind of experiment: Assay for TREK channel inhibition activity (whole cell patch clamp recording, COS7 cell transfected with GFP-rTREK-1). The test is classed as cell-based. The note with it: COS7 cells, GFP-rTREK-1, whole-cell patch clamp; for inhibition at 101 µM: COS-7, Table 3 (value ± spread), 101 μM [sic], read-out: block % at 101 μM; for inhibition at 10 µM: COS-7, Table 2, read-out: block % at 10 μM. Here is the method: The inhibition activity of the compound of the present invention against TREK-1 channel was measured by measuring the physiological activity by whole cell patch clamp recording.
COS7 cell (obtained from Korean Cell Line Bank (KCLB)) was transfected with GFP-rTREK-1 gene (accession number: AY727922) using an Effectene transfection reagent (Qiagen), and cultured for 24 hours in an incubator at 37° C. As a culture medium, Dulbecco's modified Eagle's medium (DMEM, GIBCO products from Invitrogen) containing 10% by weight of fetal bovine serum (FBS) and 1% by weight of penicillin/streptomycin (5000 unit/ml) was used. The cells thus prepared were adhered on a cover glass, which was placed on a chamber, and then a recording solution (150 mM NaCl, 10 mM HEPES, 10 mM KCl, 2 mM CaCl2, 5.5 mM D-Glucose, all reagents were purchased from Sigma) was applied. A glass microelectrode was filled with an intracellular solution prepared with the composition of 150 mM KCl, 5 mM EGTA, 10 mM HEPES, 0.5 mM CaCl2, 1 mM MgCl2, 4 mM Mg-ATP, and 0.3 mM Na-GTP (all reagents were purchased from Sigma), followed by whole-cell patch clamp recording. The voltage was fixed at −70 mV using a Digidata 1322A data acquisition system (Molecular Devices) and an Axopatch 200A amplifier (Axon Instruments), and the current generated by applying a voltage ramp from −100 mV to +100 mV for 1 second was measured using a Clampex9.2 program. A difference between the current values measured at +100 mV and −100 mV was defined as a current in the above experiment. The currents before and after blocker treatment were measured so as to determine the inhibition activity.
Block %=100−(current after blocker treatment/current before blocker treatment)*100
(In general: The patch-clamp technique gives a direct electrical read-out from membranes.)

For test [1], the target named is α1G T-type calcium channel (Homo sapiens, UniProt O43497). As to the kind of experiment: Assay for T-type calcium channel inhibition activity (FDSS6000 calcium imaging, KCl activation). Format: cell-based. The note with it: 75 s pre-treatment then KCl 75 mM, HEK293 cells expressing α1G T-type calcium channel and Kir2.1. Here is the method: At 12-24 hours before the assay for T-type calcium channel activity, cells of HEK293 cell line (α1G cell line: KCTC 10519BP, GenBank, Korea Research Institute of Bioscience and Biotechnology) which stably express α1G T-type calcium channel and Kir2.1, were sub-cultured in a poly-L-lysine (0.05 mg/ml) treated 96-well plate with the density of 4×10^4 per a well using a 96-well cell dispenser (Titertek). On the day of assay, the 96-well plate to which the cells were attached were washed three times with a HEPES buffer solution (unit mM: 150 NaCl, 5 KCl, 1 MgCl2, 2 CaCl2, 10 HEPES, 10 glucose, pH 7.4) using a 96-well plate automatic washing device (Bio Tek), and then reacted with a HEPES buffer solution containing 5 μM fluo-3/AM and 0.001% (w/v) Pluronic F-127 at room temperature for 1 hour, to label with fluorescent dye, and then further washed twice with the HEPES buffer solution. Thereafter, at 10 minutes before the measurement using a FDSS6000 device, a washing with a HEPES buffer solution containing 10 mM CaCl2 was conducted once more, and the final volume was adjusted to 81 μl. Besides the above 96-well plate containing the cells, additional two 96-well drug plates were provided, in which the 96-well plates contained KCl (final concentration: 75 mM) for activating T-type calcium channel and a blocker drug, respectively.
α1G T-type calcium channel, sequence (O43497 whole entry): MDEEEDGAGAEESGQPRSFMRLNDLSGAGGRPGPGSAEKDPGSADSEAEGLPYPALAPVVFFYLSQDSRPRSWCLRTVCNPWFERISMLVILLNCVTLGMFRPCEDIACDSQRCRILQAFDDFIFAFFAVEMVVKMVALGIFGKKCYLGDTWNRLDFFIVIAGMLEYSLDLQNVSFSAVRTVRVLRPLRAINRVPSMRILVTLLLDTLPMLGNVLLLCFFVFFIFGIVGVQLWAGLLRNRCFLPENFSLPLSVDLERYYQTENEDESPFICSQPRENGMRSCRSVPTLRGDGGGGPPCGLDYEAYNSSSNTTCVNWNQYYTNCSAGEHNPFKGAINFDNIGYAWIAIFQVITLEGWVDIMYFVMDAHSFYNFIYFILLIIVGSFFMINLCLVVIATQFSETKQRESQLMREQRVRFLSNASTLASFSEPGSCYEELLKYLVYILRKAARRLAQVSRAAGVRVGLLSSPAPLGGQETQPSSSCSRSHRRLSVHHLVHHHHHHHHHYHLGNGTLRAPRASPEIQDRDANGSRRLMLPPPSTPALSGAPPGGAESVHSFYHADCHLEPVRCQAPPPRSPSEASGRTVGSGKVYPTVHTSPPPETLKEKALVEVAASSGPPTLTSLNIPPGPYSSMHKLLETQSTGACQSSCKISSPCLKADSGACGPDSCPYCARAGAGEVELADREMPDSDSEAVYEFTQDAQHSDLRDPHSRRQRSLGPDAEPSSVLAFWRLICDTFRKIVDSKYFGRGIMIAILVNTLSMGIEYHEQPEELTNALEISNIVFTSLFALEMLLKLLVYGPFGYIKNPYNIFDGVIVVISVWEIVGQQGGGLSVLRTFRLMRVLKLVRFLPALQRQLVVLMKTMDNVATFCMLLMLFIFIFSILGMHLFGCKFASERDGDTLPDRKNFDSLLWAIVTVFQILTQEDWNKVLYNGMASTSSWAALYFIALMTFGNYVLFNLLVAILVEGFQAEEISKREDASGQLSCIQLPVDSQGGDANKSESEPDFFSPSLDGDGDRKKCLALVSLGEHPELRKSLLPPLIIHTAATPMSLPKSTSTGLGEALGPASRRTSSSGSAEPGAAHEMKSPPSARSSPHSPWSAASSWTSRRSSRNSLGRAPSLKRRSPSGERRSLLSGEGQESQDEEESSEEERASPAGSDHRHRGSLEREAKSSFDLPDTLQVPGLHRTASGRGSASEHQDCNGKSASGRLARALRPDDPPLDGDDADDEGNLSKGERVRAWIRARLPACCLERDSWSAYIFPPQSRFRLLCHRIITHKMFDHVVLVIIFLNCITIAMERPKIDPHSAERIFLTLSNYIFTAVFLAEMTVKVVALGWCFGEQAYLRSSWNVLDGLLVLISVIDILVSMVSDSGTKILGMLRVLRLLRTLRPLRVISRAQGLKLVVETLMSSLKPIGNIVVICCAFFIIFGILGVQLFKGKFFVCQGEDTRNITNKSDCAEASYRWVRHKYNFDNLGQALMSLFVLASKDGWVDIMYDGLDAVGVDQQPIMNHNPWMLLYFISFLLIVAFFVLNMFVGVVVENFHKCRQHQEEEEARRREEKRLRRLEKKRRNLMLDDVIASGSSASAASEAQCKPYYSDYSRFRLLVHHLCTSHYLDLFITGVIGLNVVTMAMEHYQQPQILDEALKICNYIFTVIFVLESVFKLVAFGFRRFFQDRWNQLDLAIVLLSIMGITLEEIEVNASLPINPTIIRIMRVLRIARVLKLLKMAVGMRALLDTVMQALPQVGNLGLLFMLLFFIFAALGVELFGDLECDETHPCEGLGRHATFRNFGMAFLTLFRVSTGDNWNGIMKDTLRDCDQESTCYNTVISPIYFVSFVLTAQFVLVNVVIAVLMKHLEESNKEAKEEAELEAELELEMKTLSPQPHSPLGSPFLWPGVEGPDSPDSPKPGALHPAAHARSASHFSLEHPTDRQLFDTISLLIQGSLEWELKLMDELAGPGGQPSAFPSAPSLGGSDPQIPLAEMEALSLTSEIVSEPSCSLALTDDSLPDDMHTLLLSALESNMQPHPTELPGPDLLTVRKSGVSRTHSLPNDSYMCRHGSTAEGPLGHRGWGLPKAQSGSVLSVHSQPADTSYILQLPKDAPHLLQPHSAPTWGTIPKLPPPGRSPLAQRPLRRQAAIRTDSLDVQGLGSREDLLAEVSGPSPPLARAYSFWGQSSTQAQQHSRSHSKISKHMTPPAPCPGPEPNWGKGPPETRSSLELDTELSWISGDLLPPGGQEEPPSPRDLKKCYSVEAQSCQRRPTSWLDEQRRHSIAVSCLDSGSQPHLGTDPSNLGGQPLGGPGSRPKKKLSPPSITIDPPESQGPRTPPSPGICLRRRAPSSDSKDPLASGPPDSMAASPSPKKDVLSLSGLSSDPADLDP
Since most of cell-based HTS (High throughput screening) devices are equipped with a liquid application system for drug injection, but have no liquid sucking system, the blocker drug to be tested and KCl were respectively provided at the five-times higher concentration in 10 mM CaCl2 HEPES buffer solution at the amount of 27 μl, diluted five-times at the final cell plate volume of 135 μl, and then used in this test. In this Experimental Example, therefore, FDSS6000 (Hamamatsu Photonics) was used as an alternative to HTS device.
Specific FDSS6000 measurement conditions are as follows: After recording the reference value of 20 seconds, the change of intracellular calcium concentration which induced by pre-treatment of the drug (the prepared […]) for 75 seconds followed by administration of KCl was measured, in which the percentage (%) inhibition effect of the test drug was determined, through estimating the area of ratio value of 340/380 in the control without treatment of the test drug as 100%. As a reference drug, 10 μM of mibefradil was always used.
For accurate calcium-imagination, the light sources of 4 xenon lamps in FDSS6000 were radiated to make the cells exposed selectively to the excitation wavelength (340 nm and 380 nm) by computer-controlled filter wheel. Data was obtained at interval of each 1.23 second. The emitter fluorescence light inflow through a 515 nm long-pass filter was obtained as an average 340/380 ratio value for each well in the 96-wells by a cooled CCD camera and digital fluorescence analyzer in the device. All image data and analysis were obtained by using a FDSS6000-exclusive program provided by Hamamatsu Photonics, as described above.

With `Cc1ccc(OC[C@H](O)CN2CCN(CC(=O)NCc3ccccc3)CC2)cc1` [KKRE10196, (R)-N-benzyl-2-(4-(2-hydroxy-3-(p-tolyloxy)propyl)piperazin-1-yl)acetamide], the inhibition at 101 µM at TREK-1 channel stood at 4.7 ± 1.04%. Besides, the inhibition in test [1] is 26%.
For `Cc1ccc(OC[C@@H](O)CN2CCN(CC(=O)NCc3ccccc3)CC2)cc1` [KKRE10197, (S)-N-benzyl-2-(4-(2-hydroxy-3-(p-tolyloxy)propyl)piperazin-1-yl)acetamide] the same measures were 13.5 ± 3.9% and 27.1%.
Regarding `Cc1ccc(CNC(=O)CN2CCN(C[C@@H](O)COc3ccc(C)cc3)CC2)cc1` [KKRE10198, (R)-2-(4-(2-hydroxy-3-(p-tolyloxy)propyl)piperazin-1-yl)-N-(4-methylbenzyl)acetamide], on TREK-1 channel, the inhibition at 10 µM came to 29.9% and the inhibition at 101 µM was found to be 29.9 ± 3.9%. In addition, in test [1], the inhibition came to 28.6%.
With `Cc1ccc(CNC(=O)CN2CCN(C[C@H](O)COc3ccc(C)cc3)CC2)cc1` [KKRE10199, (S)-2-(4-(2-hydroxy-3-(p-tolyloxy)propyl)piperazin-1-yl)-N-(4-methylbenzyl)acetamide], the inhibition at 101 µM on TREK-1 channel came out at 11 ± 2.58%. Also, in test [1], the inhibition was found to be 33.9%.
On to `Cc1ccc(OC[C@H](O)CN2CCN(CC(=O)NCc3ccc(C(F)(F)F)cc3)CC2)cc1` [KKRE10200, (R)-2-(4-(2-hydroxy-3-(p-tolyloxy)propyl)piperazin-1-yl)-N-(4-(trifluoromethyl)benzyl)acetamide], for which, on TREK-1 channel, the inhibition at 10 µM came out at 30.9% and the inhibition at 101 µM stood at 30.9 ± 3.86%. Further, the inhibition in test [1] was 43.7%.
With `Cc1ccc(OC[C@@H](O)CN2CCN(CC(=O)NCc3ccc(C(F)(F)F)cc3)CC2)cc1` [KKRE10201, (S)-2-(4-(2-hydroxy-3-(p-tolyloxy)propyl)piperazin-1-yl)-N-(4-(trifluoromethyl)benzyl)acetamide], at TREK-1 channel, the inhibition at 10 µM amounted to 25.4% and the inhibition at 101 µM turned out to be 25.4 ± 7.87%. Moreover, in test [1], the inhibition amounted to 55.4%.
With `O=C(CN1CCN(C[C@@H](O)COc2ccccc2)CC1)NCc1ccccc1` [KKRE10202, (R)-N-benzyl-2-(4-(2-hydroxy-3-phenoxypropyl)piperazin-1-yl)acetamide], the inhibition at 101 µM on TREK-1 channel was found to be 0.84 ± 1.76%. Moreover, the inhibition in test [1] stood at 21.4%.
On to `O=C(CN1CCN(C[C@H](O)COc2ccccc2)CC1)NCc1ccccc1` [KKRE10203, (S)-N-benzyl-2-(4-(2-hydroxy-3-phenoxypropyl)piperazin-1-yl)acetamide], for which, on TREK-1 channel, the inhibition at 10 µM turned out to be 38% and the inhibition at 101 µM is 38 ± 6.42%. In test [1], the inhibition is 17%.
Take `Cc1ccc(CNC(=O)CN2CCN(C[C@@H](O)COc3ccccc3)CC2)cc1` [KKRE10204, (R)-2-(4-(2-hydroxy-3-phenoxypropyl)piperazin-1-yl)-N-(4-methylbenzyl)acetamide]: at TREK-1 channel, the inhibition at 10 µM came out at 57.5% and the inhibition at 101 µM was determined as 16.3 ± 12.9%. The inhibition in test [1] stood at 12.3%.
Consider `CC(C)Cc1cc(CNC(=O)CN2CCN(C[C@@H](O)COc3ccc(C(F)(F)F)cc3)CC2)nn1-c1ccccc1` [KKRE10210, (R)-2-(4-(2-Hydroxy-3-(4-(trifluoromethyl)phenoxy)propyl)piperazin-1-yl)-N-((5-isobutyl-1-phenyl-1H-pyrazol-3-yl)methyl)acetamide], for which the inhibition at 101 µM on TREK-1 channel is 77.5 ± 5.19%. The figures for the “block % at 100 μM” value on TREK-1 channel (Table 2) and on TREK-1 channel (Table 3 (value ± spread)) were 91.23% and 91.22 ± 1.77%, respectively. Besides, the inhibition in test [1] was determined as 67%.
In the case of `CC(C)c1cc(CNC(=O)CN2CCN(C[C@@H](O)COc3ccc(C(F)(F)F)cc3)CC2)nn1-c1ccccc1` [KKRE10211, (R)-2-(4-(2-hydroxy-3-(4-(trifluoromethyl)phenoxy)propyl)piperazin-1-yl)-N-((5-isopropyl-1-phenyl-1H-pyrazol-3-yl)methyl)acetamide], on TREK-1 channel, the inhibition at 101 µM worked out at 55.3 ± 6.53%. The inhibition in test [1] was 79%.
As to `CC(C)Cc1cc(CNC(=O)CN2CCN(C[C@@H](O)COc3ccc(F)cc3)CC2)nn1-c1ccccc1` [KKRE10213, (R)-2-(4-(3-(4-Fluorophenoxy)-2-hydroxypropyl)piperazin-1-yl)-N-((5-isobutyl-1-phenyl-1H-pyrazol-3-yl)methyl)acetamide], on TREK-1 channel, the inhibition at 10 µM was 64.7%. The inhibition in test [1] is 77.4%.
For `CC(C)Cc1cc(CNC(=O)CN2CCN(C[C@H](O)COc3ccc(F)cc3)CC2)nn1-c1ccccc1` [KKRE10214, (S)-2-(4-(3-(4-Fluorophenoxy)-2-hydroxypropyl)piperazin-1-yl)-N-((5-isobutyl-1-phenyl-1H-pyrazol-3-yl)methyl)acetamide], the inhibition at 101 µM at TREK-1 channel is 37.5 ± 5.31%. The inhibition in test [1] turned out to be 77.5%.
Turning to `CC(C)Cc1cc(CNC(=O)CN2CCN(C[C@H](O)COc3ccc(C(F)(F)F)cc3)CC2)nn1-c1ccccc1` [KKRE10215, (S)-2-(4-(2-Hydroxy-3-(4-(trifluoromethyl)phenoxy)propyl)piperazin-1-yl)-N-((5-isobutyl-1-phenyl-1H-pyrazol-3-yl)methyl)acetamide], the inhibition at 101 µM on TREK-1 channel is 82.1 ± 3.81%. In test [1], the inhibition turned out to be 80.9%.
For `Cc1ccc(F)cc1-n1nc(CNC(=O)CN2CCN(C[C@@H](O)COc3ccc(C(F)(F)F)cc3)CC2)cc1CC(C)C` [KKRE10216, (R)-N-((1-(5-fluoro-2-methylphenyl)-5-isobutyl-1H-pyrazol-3-yl)methyl)-2-(4-(2-hydoxy-3-(4-(trifluoromethyl)phenoxy)propyl)piperazin-1-yl)acetamide], the inhibition at 101 µM on TREK-1 channel turned out to be 71.4 ± 10.8%. The inhibition in test [1] stood at 77.4%.
For `CC(C)Cc1cc(CNC(=O)CN2CCN(C[C@@H](O)COc3ccc(C(F)(F)F)cc3)CC2)nn1-c1ccc(F)cc1` [KKRE10217, (R)-N-((1-(4-fluorophenyl)-5-isobutyl-1H-pyrazol-3-yl)methyl)-2-(4-(2-hydroxy-3-(4-(trifluoromethyl)phenoxy)propyl)piperazin-1-yl)acetamide] the same measures were 50.1 ± 10.7% and 75.7%.
